# Reference: patent US10363229B2, “Methods and compositions for the treatment of cancer” (priority 2009, dated 2019)
# How the values were obtained:
# melanoma cells [1] = assay: Cell proliferation, BrdU incorporation into DNA; type: cell-based, mouse; settings: 2% methyl sulfone
# Method: Cells were plated onto sterile 12 mm coverslips in 35 mm tissue culture plates and incubated at 37° C., 5% CO2. After 24 hours, 2% methyl sulfone in medium or medium alone was added the plates and incubated at 37° C., 5% CO2 for 48 and 72 hrs. BrdU (Molecular Probes, Eugene, Oreg., USA; diluted ⅓ in RPMI medium) was added to each plate for 60 minutes at 37° C., 5% CO2. Coverslips were transferred to porcelain holders, washed with PBS, fixed in methanol/acetone (1:1), washed with PBS, and incubated in 5% BSA/PBS for 30 minutes at room temperature. To denature DNA, coverslips were placed in 0.1N HCL/1% Triton X-100 for 10 minutes at room temperature. After washing in PBS, cells were incubated with Alexa Fluor 488 anti-BrdU antibody (Molecular Probes, Eugene, Oreg.; diluted 1/20 in 5% BSA/PBS) for 60 minutes at room temperature. Cells were washed in PBS and incubated with Hoechst (diluted 1/1000 in PBS) in the dark at room temperature. After washing in PBS, cells were dipped in dH2O and drained onto Kim Wipes. SlowFade mounting medium (Molecular Probes, Eugene, Oreg.) was added to a glass slide and coverslips were placed face down onto slides and sealed with clear nail polish. […]
# melanoma cells [2] = assay: Senescence assay (β-galactosidase staining) and arborization; type: cell-based, mouse
# Method: Senescence was assessed with the Senescence Cells Histochemical Staining Kit (Sigma).
# During the first 2-3 weeks of incubating melanoma cells in 2% methyl sulfone, replacement of the 2% methyl sulfone medium with medium without drug reversed the phenotypes described above. Re-adding 2% methyl sulfone to the cells re-induced the non-malignant phenotypes. This cycle of reversal occurred until the cells were incubated with 2% methyl sulfone for more than three weeks. […] As a further test, we detached senescent cells from the culture dish by trypsinization and replated the cells in medium without methyl sulfone.
# Mature melanocytes assume a morphology that is similar to neuronal cells by having a small area of cytoplasm surrounding the nucleus and long extensions called arbors. The primary function of melanocytes is to produce melanin and package the melanin in vesicles called melanosomes. Melanosomes are then transported to the tips of melanocytes arbors. These tips are phagocytized by keratinocytes, cells that sit near the skin's surface, and the newly acquired melanosomes form an umbrella-like shield around the nuclei of keratinocytes to protect these cells' DNA from UV-inducing mutations.
# [3] = system: B-cells from healthy volunteers; assay: Apoptosis of normal B-cells by Flow Cytometry; type: cell-based, human; settings: 10% methyl sulfone, 20 hours
# Method: Blood was drawn from healthy volunteers and white blood cells (e.g., lymphocytes, neutrophils) were enriched using Ficoll-Plaque. Cells were incubated in Petri dishes containing MEM with 7% fetal calf serum in a CO2 (5%) incubator at 37° C.; Methyl sulfone was present at concentrations of 0, 3, 6, or 10%. After 20 hours, cells were incubated with antibodies specific to T-lymphocytes (CD3 and CD4 T-cells), B-lymphocytes (B-cells) and neutrophils, and the percent of apoptotic cells was determined by Flow Cytometry. This is a technique that identifies specific cell types (e.g., CD3 T-cells, CD4 T-cells, B-cells, neutrophils) within a mixed population of blood cells, and then determines whether the cells are alive or apoptotic.
# After 20 hours, cells were incubated with fluorescent antibodies to identify T-cells, B-cells and neutrophils, and then processed by Flow Cytometry (FIG. 15).
# [4] = system: SKP2 and p27 in 66 and M3 cells; assay: Immunofluorescence of SKP2 and p27 in cancer cells (Example 2); type: cell-based, mouse; settings: 2% methyl sulfone, four weeks
# Excerpt: SKP2 is a ubiquitin ligase that is active in cell nuclei and is expressed in many types of malignant cells. SKP2 promotes cell cycling and cell proliferation and promotes the degradation of the tumor suppressor protein p27. p27 is a tumor suppressor that is active when located in cell nuclei and in a non-phosphorylated form. p27 promotes cell cycle arrest and senescence.
# In normal differentiated cells, p27 (non-phosphorylated active form) is located in the nucleus. […] This was confirmed in the experiments described below. The nuclei were stained with DAPI (blue) and corresponding p27 (red) or SKP2 (red), and then merged the p27/DAPI and SKP2/DAPI photos.
# Cells were plated at 1×10^5 cells/ml on 12 mm round coverslips in 35 mm tissue culture plates (final volume of media was 1.5 ml/35 mm plate). At 24 hours after plating, media was replaced with fresh media containing 2% methyl sulfone and cells were incubated in media/2% methyl sulfone for four weeks. Media/2% methyl sulfone was changed every Monday, Wednesday, and Friday Immunofluorescence was performed at four weeks after plating to look for the presence of the following proteins: SKP2 and p27 (Santa Cruz Biotechnology). […]
substance,measurement,setting,value
methyl sulfone,cells synthesizing DNA (BrdU incorporation),melanoma cells [1]; 48 hours (control 14%),0.03%
same,cells synthesizing DNA (BrdU incorporation),melanoma cells [1]; 72 hours (control 21%),0%
same,morphology of senescent melanoma cells (arborization),melanoma cells [2]; 2% methyl sulfone,took on the morphology of mature melanocytes
same,survival of arborized cells in culture,melanoma cells [2]; 2% methyl sulfone,at least two months
same,melanoma cells senescent (β-galactosidase activity),melanoma cells [2]; 2% methyl sulfone for more than three weeks,greater than 95%
same,senescence after replacing drug medium with control medium,"melanoma cells [2]; senescent cells, 2% methyl sulfone removed",remained senescent
same,effect on B-cells,[3],unharmed
same,SKP2 level and location,[4],low levels of SKP2 in the cytoplasm
same,p27 expression and location,[4],high expression of p27 in the nucleus
